Results from ChEMBL document CHEMBL5465560, “Selectivity Literature for EUbOPEN Chemogenomic Library” (2024).

Columns and labels:
[1] = molecular target: Ephrin type-A receptor 5 (Homo sapiens) (UniProt P54756); assay: Selectivity interaction (KinomeScan (DiscoverX)) EUB0000229b EPHA5; conditions: at 10 µM
[2] = molecular target: Tyrosine-protein kinase JAK2 (Homo sapiens, UniProt O60674); assay: Selectivity interaction (KinomeScan (DiscoverX)) EUB0000092b JAK2; conditions: at 10 µM
[3] = molecular target: T1, Mitogen-activated protein kinase kinase kinase 2 (Homo sapiens) (UniProt Q9Y2U5); assay: Selectivity interaction (ProQinase) EUB0000171b MAP3K2
T1 sequence (whole entry): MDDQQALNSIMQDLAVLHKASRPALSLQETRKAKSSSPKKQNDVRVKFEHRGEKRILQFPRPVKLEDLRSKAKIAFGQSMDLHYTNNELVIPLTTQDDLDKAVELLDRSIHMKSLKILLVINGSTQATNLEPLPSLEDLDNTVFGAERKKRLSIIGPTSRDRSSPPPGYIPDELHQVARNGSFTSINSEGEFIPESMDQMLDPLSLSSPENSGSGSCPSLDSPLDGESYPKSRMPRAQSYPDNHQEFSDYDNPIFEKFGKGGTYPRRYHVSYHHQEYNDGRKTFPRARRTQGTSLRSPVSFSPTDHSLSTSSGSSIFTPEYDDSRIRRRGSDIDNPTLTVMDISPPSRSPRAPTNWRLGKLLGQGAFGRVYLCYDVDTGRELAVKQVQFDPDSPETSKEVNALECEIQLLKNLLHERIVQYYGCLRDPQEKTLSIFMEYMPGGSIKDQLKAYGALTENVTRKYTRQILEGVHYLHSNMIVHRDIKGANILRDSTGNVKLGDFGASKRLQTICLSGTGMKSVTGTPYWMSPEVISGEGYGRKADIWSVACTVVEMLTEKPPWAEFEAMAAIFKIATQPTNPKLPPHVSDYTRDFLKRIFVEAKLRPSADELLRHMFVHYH

[4] = molecular target: T2, Mitogen-activated protein kinase kinase kinase 3 (Homo sapiens) (UniProt Q99759); assay: Selectivity interaction (ProQinase) EUB0000171b MAP3K3
T2 sequence (whole entry): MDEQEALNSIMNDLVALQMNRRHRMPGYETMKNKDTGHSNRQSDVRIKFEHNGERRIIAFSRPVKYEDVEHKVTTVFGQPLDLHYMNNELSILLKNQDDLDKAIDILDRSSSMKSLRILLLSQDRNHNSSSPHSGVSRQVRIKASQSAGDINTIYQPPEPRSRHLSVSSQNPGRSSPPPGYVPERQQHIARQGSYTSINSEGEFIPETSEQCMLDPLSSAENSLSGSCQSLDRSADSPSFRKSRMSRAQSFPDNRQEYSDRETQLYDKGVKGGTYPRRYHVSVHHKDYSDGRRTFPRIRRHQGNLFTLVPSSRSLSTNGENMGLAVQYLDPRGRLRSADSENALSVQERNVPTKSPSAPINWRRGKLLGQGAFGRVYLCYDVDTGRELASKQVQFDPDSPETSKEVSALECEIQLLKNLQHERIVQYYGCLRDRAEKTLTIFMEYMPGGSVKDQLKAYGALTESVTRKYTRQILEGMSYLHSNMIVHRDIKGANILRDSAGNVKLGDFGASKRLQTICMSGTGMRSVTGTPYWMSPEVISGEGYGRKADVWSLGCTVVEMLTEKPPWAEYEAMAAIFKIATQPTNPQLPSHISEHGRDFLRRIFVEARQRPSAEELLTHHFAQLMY

[5] = molecular target: MAP kinase-interacting serine/threonine-protein kinase 2 (Homo sapiens, UniProt Q9HBH9); assay: Selectivity interaction (KinomeScan (DiscoverX)) EUB0001079a MKNK2; conditions: at 1 µM
[6] = molecular target: Homeodomain-interacting protein kinase 1 (Homo sapiens, UniProt Q86Z02); assay: Selectivity interaction (KinomeScan (DiscoverX)) EUB0000666a HIPK1; conditions: at 10 µM
[7] = molecular target: T3, Activin receptor type-1B (Homo sapiens) (UniProt P36896); assay: Selectivity interaction (Kinase panel (Invitrogen)) EUB0000639a ACVR1B; conditions: at 200 nM
T3 sequence (whole entry): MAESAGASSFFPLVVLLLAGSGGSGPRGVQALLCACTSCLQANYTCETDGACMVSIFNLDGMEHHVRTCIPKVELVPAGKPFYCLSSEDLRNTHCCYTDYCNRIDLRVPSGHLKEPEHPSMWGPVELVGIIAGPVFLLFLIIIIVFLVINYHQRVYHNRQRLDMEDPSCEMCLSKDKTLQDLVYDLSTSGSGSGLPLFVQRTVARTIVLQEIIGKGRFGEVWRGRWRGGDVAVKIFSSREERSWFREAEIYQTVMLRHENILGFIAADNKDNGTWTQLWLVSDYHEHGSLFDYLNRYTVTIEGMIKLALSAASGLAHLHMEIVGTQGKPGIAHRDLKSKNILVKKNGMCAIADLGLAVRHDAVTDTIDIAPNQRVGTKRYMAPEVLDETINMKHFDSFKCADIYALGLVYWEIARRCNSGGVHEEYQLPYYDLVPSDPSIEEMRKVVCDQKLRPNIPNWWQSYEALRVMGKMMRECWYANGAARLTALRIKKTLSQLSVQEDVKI

[8] = molecular target: Epithelial discoidin domain-containing receptor 1 (Homo sapiens) (UniProt Q08345); assay: Selectivity interaction (Kinase panel (Invitrogen)) EUB0000639a DDR1; conditions: at 200 nM
[9] = molecular target: Serine/threonine-protein kinase 24 (Homo sapiens) (UniProt Q9Y6E0); assay: Selectivity interaction (ActivX KiNativ screen (kinase selectivity in THP-1 cell lysates)) EUB0000639a STK24; assay type: subcellular; conditions: lysate, at 0.04 µM
[10] = molecular target: Dual specificity tyrosine-phosphorylation-regulated kinase 1A (Homo sapiens, UniProt Q13627); assay: Selectivity interaction (SelectScreen profiling (Invitrogen)) EUB0000607a DYRK1A; conditions: at 2 µM
[11] = molecular target: Tyrosine-protein kinase Srms (Homo sapiens) (UniProt Q9H3Y6); assay: Selectivity interaction (KinomeScan (DiscoverX)) EUB0000695a SRMS; conditions: at 100 nM
[12] = molecular target: Insulin receptor-related protein (Homo sapiens) (UniProt P14616); assay: Selectivity interaction (KinomeScan (DiscoverX)) EUB0000595a INSRR; conditions: at 10 µM
[13] = molecular target: STE20/SPS1-related proline-alanine-rich protein kinase (Homo sapiens) (UniProt Q9UEW8); assay: Selectivity interaction (KinomeScan (DiscoverX)) EUB0001619a STK39; conditions: at 1 µM

Sequence of Tyrosine-protein kinase JAK2 (O60674 whole entry): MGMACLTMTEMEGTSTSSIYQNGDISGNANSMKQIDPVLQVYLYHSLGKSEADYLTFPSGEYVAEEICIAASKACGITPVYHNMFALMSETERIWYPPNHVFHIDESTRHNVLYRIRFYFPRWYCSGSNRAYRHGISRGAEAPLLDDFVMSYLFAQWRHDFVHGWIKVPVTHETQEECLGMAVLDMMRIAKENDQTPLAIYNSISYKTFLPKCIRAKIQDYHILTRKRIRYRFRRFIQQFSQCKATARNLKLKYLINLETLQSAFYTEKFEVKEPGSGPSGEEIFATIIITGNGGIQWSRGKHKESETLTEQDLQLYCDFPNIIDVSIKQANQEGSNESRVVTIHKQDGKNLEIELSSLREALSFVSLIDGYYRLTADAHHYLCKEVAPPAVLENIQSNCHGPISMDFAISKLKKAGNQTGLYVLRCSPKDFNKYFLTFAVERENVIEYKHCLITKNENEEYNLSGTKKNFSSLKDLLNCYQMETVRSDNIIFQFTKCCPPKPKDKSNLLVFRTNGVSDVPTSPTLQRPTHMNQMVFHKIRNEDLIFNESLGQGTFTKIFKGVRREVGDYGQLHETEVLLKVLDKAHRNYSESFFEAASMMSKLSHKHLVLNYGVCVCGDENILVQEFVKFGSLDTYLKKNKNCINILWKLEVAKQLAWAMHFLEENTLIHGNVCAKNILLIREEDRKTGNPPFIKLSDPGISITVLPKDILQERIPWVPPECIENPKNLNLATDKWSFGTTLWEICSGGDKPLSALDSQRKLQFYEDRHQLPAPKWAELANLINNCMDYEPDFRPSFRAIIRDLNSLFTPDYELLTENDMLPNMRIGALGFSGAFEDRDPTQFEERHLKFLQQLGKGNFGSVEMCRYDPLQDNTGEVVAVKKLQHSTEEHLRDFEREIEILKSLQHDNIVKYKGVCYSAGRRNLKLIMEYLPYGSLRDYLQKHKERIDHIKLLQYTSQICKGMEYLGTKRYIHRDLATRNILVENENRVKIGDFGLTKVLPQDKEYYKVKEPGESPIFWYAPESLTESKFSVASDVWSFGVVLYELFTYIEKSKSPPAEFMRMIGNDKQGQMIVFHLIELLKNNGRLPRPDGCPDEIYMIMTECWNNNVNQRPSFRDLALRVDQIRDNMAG
Sequence of Ephrin type-A receptor 5 (Homo sapiens) (P54756 whole entry): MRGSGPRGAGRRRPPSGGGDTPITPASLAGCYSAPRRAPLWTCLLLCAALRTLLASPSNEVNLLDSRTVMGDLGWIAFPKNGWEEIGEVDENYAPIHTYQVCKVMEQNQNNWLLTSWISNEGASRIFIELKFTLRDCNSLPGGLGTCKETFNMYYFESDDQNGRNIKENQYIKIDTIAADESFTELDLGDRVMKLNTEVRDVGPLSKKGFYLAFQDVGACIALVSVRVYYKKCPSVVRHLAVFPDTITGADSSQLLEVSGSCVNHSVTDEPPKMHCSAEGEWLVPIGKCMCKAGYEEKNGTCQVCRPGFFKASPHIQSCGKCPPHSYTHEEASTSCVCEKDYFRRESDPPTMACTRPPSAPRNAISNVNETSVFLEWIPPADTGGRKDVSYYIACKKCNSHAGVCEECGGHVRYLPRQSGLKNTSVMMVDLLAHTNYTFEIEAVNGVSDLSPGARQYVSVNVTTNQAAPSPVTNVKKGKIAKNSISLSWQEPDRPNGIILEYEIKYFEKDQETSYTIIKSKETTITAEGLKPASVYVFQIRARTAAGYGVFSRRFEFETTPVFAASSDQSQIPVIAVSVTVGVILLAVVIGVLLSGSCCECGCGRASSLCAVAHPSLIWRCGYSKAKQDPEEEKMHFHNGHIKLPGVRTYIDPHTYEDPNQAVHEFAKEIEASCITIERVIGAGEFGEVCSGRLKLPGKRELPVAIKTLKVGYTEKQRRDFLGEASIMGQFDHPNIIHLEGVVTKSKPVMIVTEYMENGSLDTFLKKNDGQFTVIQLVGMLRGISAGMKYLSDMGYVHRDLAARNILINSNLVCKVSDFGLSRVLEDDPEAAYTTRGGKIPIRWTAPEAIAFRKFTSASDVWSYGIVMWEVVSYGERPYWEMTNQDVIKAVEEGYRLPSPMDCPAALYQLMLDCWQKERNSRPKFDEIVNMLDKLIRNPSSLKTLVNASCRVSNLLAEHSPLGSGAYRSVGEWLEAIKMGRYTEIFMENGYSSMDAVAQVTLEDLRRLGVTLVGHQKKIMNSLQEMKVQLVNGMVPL
Sequence of Serine/threonine-protein kinase 24 (Homo sapiens) (Q9Y6E0 whole entry, looked up): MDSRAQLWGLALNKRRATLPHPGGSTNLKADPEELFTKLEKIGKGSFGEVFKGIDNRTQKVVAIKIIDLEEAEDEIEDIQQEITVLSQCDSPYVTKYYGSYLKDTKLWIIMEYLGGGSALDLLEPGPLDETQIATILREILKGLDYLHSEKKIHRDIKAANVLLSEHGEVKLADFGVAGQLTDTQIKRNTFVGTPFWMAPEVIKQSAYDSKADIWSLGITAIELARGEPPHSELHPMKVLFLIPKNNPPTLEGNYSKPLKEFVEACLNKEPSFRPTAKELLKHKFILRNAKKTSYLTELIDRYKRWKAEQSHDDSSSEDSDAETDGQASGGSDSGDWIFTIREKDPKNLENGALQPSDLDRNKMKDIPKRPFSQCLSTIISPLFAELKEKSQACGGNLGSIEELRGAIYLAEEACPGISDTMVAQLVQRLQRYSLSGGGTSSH
Sequence of MAP kinase-interacting serine/threonine-protein kinase 2 (Q9HBH9 whole entry, looked up): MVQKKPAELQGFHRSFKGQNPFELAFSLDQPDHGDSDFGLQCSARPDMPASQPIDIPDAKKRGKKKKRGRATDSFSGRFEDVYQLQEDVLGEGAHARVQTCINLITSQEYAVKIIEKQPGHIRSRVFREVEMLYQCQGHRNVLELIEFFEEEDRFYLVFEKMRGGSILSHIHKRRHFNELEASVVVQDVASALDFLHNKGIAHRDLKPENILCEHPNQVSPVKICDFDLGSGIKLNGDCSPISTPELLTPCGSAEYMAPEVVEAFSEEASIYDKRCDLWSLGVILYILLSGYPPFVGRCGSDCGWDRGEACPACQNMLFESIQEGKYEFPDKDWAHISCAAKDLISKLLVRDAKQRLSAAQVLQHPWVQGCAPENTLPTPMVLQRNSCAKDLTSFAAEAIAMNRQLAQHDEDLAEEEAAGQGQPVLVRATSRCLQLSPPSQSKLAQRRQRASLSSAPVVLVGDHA
Sequence of Insulin receptor-related protein (Homo sapiens) (P14616 27-742 limits assumed): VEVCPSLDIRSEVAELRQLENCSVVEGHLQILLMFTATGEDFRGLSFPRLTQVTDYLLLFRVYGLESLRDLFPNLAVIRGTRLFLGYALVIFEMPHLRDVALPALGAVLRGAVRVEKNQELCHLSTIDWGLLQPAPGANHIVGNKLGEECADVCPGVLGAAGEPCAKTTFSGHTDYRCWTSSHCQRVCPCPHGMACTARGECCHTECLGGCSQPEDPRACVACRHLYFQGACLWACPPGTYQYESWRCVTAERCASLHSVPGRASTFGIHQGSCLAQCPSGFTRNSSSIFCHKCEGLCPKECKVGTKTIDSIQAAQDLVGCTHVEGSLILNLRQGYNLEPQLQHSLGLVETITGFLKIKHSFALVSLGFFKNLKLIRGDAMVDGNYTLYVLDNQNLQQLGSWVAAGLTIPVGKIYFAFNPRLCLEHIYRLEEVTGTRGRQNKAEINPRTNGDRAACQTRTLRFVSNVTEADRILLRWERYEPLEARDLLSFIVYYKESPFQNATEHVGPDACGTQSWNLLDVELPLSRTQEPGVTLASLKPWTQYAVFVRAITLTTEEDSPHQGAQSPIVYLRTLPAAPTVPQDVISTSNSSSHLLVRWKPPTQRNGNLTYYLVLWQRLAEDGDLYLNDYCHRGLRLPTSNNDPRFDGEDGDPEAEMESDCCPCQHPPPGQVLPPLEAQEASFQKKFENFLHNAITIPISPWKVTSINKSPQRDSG
Sequence of Insulin receptor-related protein (Homo sapiens) (P14616 747-1297 limits assumed): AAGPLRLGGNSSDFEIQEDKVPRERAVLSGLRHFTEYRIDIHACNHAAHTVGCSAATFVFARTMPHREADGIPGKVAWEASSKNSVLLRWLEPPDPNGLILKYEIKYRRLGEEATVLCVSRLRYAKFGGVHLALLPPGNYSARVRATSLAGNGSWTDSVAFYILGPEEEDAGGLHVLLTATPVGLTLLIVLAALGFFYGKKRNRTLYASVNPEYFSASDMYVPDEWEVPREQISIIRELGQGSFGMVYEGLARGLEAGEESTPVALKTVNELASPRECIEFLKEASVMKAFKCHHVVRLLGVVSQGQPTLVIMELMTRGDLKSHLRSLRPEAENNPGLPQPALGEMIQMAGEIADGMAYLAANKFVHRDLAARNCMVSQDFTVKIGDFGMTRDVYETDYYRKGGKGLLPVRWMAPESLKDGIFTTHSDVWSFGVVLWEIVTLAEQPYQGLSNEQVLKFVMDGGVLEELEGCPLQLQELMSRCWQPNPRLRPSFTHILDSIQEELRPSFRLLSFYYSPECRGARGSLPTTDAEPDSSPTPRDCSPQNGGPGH
Sequence of Tyrosine-protein kinase Srms (Homo sapiens) (Q9H3Y6 whole entry): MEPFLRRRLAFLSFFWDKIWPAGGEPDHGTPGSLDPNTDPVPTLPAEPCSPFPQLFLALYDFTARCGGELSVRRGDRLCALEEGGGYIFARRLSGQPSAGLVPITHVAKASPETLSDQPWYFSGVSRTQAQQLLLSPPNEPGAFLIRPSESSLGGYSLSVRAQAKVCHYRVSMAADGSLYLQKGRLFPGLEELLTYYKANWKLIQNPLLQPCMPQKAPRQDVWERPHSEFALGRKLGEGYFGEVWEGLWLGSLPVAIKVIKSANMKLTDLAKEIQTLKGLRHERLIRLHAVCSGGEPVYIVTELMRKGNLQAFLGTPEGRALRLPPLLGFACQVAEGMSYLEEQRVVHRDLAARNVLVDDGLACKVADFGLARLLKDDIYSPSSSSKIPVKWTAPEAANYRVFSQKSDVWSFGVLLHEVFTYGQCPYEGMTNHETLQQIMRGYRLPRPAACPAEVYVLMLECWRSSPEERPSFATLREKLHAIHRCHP

Structure (SMILES): COc1cc(N(C)c2ccnc3ccc(C(F)(F)F)cc23)cc(OC)c1OC
- % binding [1]: 97%

Structure (SMILES): CCC(=O)N1CCN(c2ccc(-n3c(=O)ccc4cnc5ccc(-c6cnc7ccccc7c6)cc5c43)cc2C(F)(F)F)CC1
- % of control [2]: 65%

Structure (SMILES): C=CC(=O)Nc1cccc(C(=O)Nc2ccc(Nc3cc(-c4[nH]c(SC)nc4C)ccn3)cc2)c1
- % of control ([3]; at 1 µM): 99%
- % of control ([3]; at 5 µM): 88%
- % of control ([4]; at 1 µM): 102%
- % of control ([4]; at 5 µM): 103%

Structure (SMILES): Nc1cnc(N2CCc3cc(S(=O)(=O)Nc4c(F)cc(Cl)cc4F)cc(N4CCCC4=O)c32)nc1 [TP-020n]
- % of control [5]: 100%

Structure (SMILES): O=C(NOC[C@H](O)CO)c1ccc(F)c(F)c1Nc1ccc(I)cc1F
- % of control [6]: 91%

Structure (SMILES): CC[C@@H]1[C@H](F)C(=O)N[C@@H]1COc1nccc2cc(C(N)=O)c(OC)cc12 [ZIMLOVISERTIB]
- % of inhibition [7]: 2.54%
- % of inhibition [8]: -1.2%
- % of inhibition [9]: 13.3%

Structure (SMILES): CNC(=O)Nc1ccc(-c2nc(N3CC4CCC(C3)O4)c3cnn(C4CCC5(CC4)OCCO5)c3n2)cc1
- % of inhibition [10]: 2%

Structure (SMILES): Cc1cc(F)c(C(=O)Nc2cccc(-c3nncn3C(C)C)n2)cc1-n1cnc(C2CC2)c1
- % of control [11]: 100%

Structure (SMILES): COCC(=O)NC/C=C/c1ccc2ncnc(Nc3ccc(Oc4ccc(C)nc4)c(C)c3)c2c1 [CP-724714]
- % of control [12]: 100%

Structure (SMILES): N#Cc1cccc(-c2c[nH]c3ncnc(N4CCOCC4)c23)c1
- % of control [13]: 92%
